Test results from article PMC7252619 (PLoS ONE, 2020).
Read-outs that look alike come from different tables or passages of the source.

Experiments:
[1] = system: human CD19+ B cells; assay: B-cell assay: IgG production of ODN2006-stimulated primary B cells (AlphaLISA); format: cell-based; conditions: Homo sapiens, B-cell
Procedure: (§1) Compounds were prepared as 10 mM stock solutions in dimethylsulfoxide (DMSO)and were tested at 50-10-1-0.1-0.01 and 0.001 μM in the 4 assays.
Blood samples of healthy volunteers were collected at the Red Cross of Mechelen, Belgium.
Highly purified naive peripheral human B cells were separated from fresh human PBMCs on magnetic columns by positive selection using CD19 magnetic beads according to the manufacturer’s instructions (MACS Miltenyi Biotech, Leiden, The Netherlands). […] Freshly isolated human CD19+ B cells were then plated at 25 000 cells per well in a 384-well plate (Perkin Elmer, Zaventem, Belgium) in 55 μL in DMEM medium containing 10% FCS and 5 μg/mL gentamicin sulphate. After 7 days of stimulation with 0.1 μM ODN2006 (InvivoGen, Toulouse, France), supernatant was taken for analysis of IgG using the AlphaLISA human IgG kit according to the manufacturer’s instructions (Perkin Elmer, Zaventem, Belgium).

[2] = system: human PBMCs (responder cells) with RPMI1788 stimulator cells; assay: Mixed Lymphocyte Reaction (MLR, T cell assay), 3H-thymidine incorporation; format: cell-based; conditions: for IC50: Homo sapiens, RPMI-1788, mean of 4 independent measures, read-out: T-cell efficacy, MLR IC 50 (µM) Mean; for Selectivity Index (SI) MLR/B-cell: ratio of IC50 values
Procedure: In order to test the efficacy and selectivity of the hit compounds on B-cells, 4 assays were performed: B-cell assay, Mixed Lymphocyte Reaction (MLR), WST-1 assay on RPMI1788 cells (B-cell line) and cytotoxicity WST-1 assay on Jurkat cells (T-cell line). Compounds were prepared as 10 mM stock solutions in dimethylsulfoxide (DMSO)and were tested at 50-10-1-0.1-0.01 and 0.001 μM in the 4 assays.
Blood samples of healthy volunteers were collected at the Red Cross of Mechelen, Belgium. Each donor consents to the use of their blood for research purposes. […] The human B cell line RPMI1788 (American Type Culture Collection, USA) and the human T cell line Jurkat (European Collection of Cell Cultures, ECACC, England) were maintained in RPMI1640 culture medium (BioWhittaker®, Lonza, Verviers, Belgium) containing 10% foetal calf serum (FCS, HyClone® Thermo Scientific, United Kingdom) and 5 μg/mL gentamicin sulphate (BioWhittaker®, Lonza, Verviers, Belgium) at 37°C and 5% CO2.
MLR assay (T cell assay): Freshly isolated human PBMCs (responder cells) were resuspended in RPMI1640 medium containing 10% FCS and 5nμg/mL gentamicin sulphate. RPMI1788 cells (stimulator cells) were inactivated by treatment with mitomycin C (Kyowa®, Takeda Belgium, Brussels, Belgium) for 20 min at 37°C, washed and finally suspended in culture medium. An amount of 100 μL of each cell suspension was mixed with 20 μL of diluted compound. The mixed cells were cultured at 37°C for 6 days in 5% CO2. DNA synthesis was assayed by the addition of 10 μCi (methyl-3H) thymidine (Perkin Elmer, Zaventem, Belgium) per well during the last 18 h in culture. Thereafter, the cells were harvested on glass filter paper and the counts per minute determined in a liquid scintillation counter (TopCount, Perkin Elmer, Zaventem, Belgium).

[3] = WST-1 cytotoxicity assay on RPMI1788 cells (B-cell line); format: cell-based, human; conditions: human, RPMI1788 cells (B-cell line), mean of 4 independent measures, read-out: Cytotoxicity, WST-1 RPMI 1788 IC 50 (µM) Mean
Procedure: as §1
(§2) The human B cell line RPMI1788 (American Type Culture Collection, USA) and the human T cell line Jurkat (European Collection of Cell Cultures, ECACC, England) were maintained in RPMI1640 culture medium (BioWhittaker®, Lonza, Verviers, Belgium) containing 10% foetal calf serum (FCS, HyClone® Thermo Scientific, United Kingdom) and 5 μg/mL gentamicin sulphate (BioWhittaker®, Lonza, Verviers, Belgium) at 37°C and 5% CO2.
(§3) WST-1 assays on RPMI-1788 cells and Jurkat cells were performed as follows: 20 μL of test compound dilution were added to each well containing exponential growing cells and the plates were incubated for 48 h at 37°C, 5% CO2. Untreated cells and positive control (1% triton X-100, for the last 15 min) served as reference for maximum and minimum viability. At the end of incubation 100 μL of supernatant were removed and replaced by 10 μL of WST-1 solution (Cell Proliferation Reagent WST-1, Roche Applied Science).

[4] = target: T1, CK1d (Homo sapiens, UniProt P48730); assay: Kinase activity test (ReactionBiology), % enzyme activity relative to DMSO; format: biochemical; conditions: CK1d
T1 construct: purchased ReactionBiology

[5] = WST-1 cytotoxicity assay on Jurkat cells (T-cell line); format: cell-based, human; conditions: human, Jurkat cells (T-cell line), mean of 4 independent measures, read-out: Cytotoxicity, WST-1 Jurkat IC 50 (µM) Mean
Procedure: as §1, §2, §3

[6] = target: T2, NEK2 (Homo sapiens, UniProt P51955); assay: Kinase activity test (ReactionBiology), % enzyme activity relative to DMSO; format: biochemical;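 also: FDA-approved drugs chosen by structure-based repositioning, each screened at 10 or 1 µM for kinase activity, expressed as percent of DMSO controls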
T2 construct: purchased ReactionBiology
T2 sequence (P51955 1-445): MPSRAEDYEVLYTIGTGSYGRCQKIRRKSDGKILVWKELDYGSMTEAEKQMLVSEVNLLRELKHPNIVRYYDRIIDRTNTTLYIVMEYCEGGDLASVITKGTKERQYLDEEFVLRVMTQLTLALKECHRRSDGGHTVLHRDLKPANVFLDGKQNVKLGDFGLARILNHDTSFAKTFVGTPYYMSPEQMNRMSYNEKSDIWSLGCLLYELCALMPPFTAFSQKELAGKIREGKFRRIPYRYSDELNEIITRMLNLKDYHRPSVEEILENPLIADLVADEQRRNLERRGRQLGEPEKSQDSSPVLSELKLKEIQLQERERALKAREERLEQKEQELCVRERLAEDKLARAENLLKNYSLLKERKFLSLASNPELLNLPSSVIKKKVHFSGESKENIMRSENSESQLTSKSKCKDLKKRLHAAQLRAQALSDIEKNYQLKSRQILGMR

[7] = target: T3, MST-4 (Homo sapiens, UniProt Q9P289); assay: as above; format: biochemical; conditions: MST4;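 also: marketed FDA-approved drugs screened at 10 µM and 1 µM against a ten-kinase panel, remaining activity given as percent of DMSO controls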
T3 construct: purchased ReactionBiology

[8] = target: T4, DAPK1 (Homo sapiens, UniProt P53355); assay: as above; format: biochemical; conditions: DAPK1
T4 construct: purchased ReactionBiology

[9] = target: T5, MAP2K2 (Homo sapiens, UniProt P36507); assay: as above; format: biochemical; conditions: MEK2
T5 construct: purchased ReactionBiology

[10] = target: VEGFR2 (Homo sapiens, UniProt P35968); assay: as above; format: biochemical; set-up: purchased ReactionBiology; conditions: VEGFR2;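 also: VEGFR2 was one member of a ten-kinase screening panel testing marketed FDA-approved drugs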
[11] = 168 h, IgG production, ODN2006 0.1 μM, 7 days, mean of 4 independent experiments, read-out: B-cell IC50
[12] = 1 uM, Average, read-out: % Enzyme Activity (relative to DMSO controls), Average
[13] = 1 uM, replicate Data 1, read-out: % Enzyme Activity (relative to DMSO controls), Data 1
[14] = 1 uM, replicate Data 2, read-out: % Enzyme Activity (relative to DMSO controls), Data 2
[15] = 10 uM, Average, read-out: % Enzyme Activity (relative to DMSO controls), Average
[16] = 10 uM, replicate Data 1, read-out: % Enzyme Activity (relative to DMSO controls), Data 1
[17] = 10 uM, replicate Data 2, read-out: % Enzyme Activity (relative to DMSO controls), Data 2
[18] = compound 1μM, relative to DMSO controls, read-out: % Enzyme activity at 1μM
[19] = compound 10μM, relative to DMSO controls, read-out: % Enzyme activity at 10μM
[20] = NEK2, 1 uM, Average, read-out: % Enzyme Activity (relative to DMSO controls), Average
[21] = NEK2, 1 uM, replicate Data 1, read-out: % Enzyme Activity (relative to DMSO controls), Data 1
[22] = NEK2, 1 uM, replicate Data 2, read-out: % Enzyme Activity (relative to DMSO controls), Data 2
[23] = NEK2, 10 uM, Average, read-out: % Enzyme Activity (relative to DMSO controls), Average
[24] = NEK2, 10 uM, replicate Data 1, read-out: % Enzyme Activity (relative to DMSO controls), Data 1
[25] = NEK2, 10 uM, replicate Data 2, read-out: % Enzyme Activity (relative to DMSO controls), Data 2
[26] = Average, read-out: % Enzyme Activity (relative to DMSO controls), Average
[27] = replicate Data 1, read-out: % Enzyme Activity (relative to DMSO controls), Data 1
[28] = replicate Data 2, read-out: % Enzyme Activity (relative to DMSO controls), Data 2
[29] = read-out: % Enzyme Activity (relative to DMSO controls), Average
[30] = read-out: % Enzyme Activity (relative to DMSO controls), Data 1
[31] = read-out: % Enzyme Activity (relative to DMSO controls), Data 2
[32] = NEK2, compound 1μM, relative to DMSO controls, read-out: % Enzyme activity at 1μM
[33] = NEK2, compound 10μM, relative to DMSO controls, read-out: % Enzyme activity at 10μM

T4 sequence (P53355 whole entry): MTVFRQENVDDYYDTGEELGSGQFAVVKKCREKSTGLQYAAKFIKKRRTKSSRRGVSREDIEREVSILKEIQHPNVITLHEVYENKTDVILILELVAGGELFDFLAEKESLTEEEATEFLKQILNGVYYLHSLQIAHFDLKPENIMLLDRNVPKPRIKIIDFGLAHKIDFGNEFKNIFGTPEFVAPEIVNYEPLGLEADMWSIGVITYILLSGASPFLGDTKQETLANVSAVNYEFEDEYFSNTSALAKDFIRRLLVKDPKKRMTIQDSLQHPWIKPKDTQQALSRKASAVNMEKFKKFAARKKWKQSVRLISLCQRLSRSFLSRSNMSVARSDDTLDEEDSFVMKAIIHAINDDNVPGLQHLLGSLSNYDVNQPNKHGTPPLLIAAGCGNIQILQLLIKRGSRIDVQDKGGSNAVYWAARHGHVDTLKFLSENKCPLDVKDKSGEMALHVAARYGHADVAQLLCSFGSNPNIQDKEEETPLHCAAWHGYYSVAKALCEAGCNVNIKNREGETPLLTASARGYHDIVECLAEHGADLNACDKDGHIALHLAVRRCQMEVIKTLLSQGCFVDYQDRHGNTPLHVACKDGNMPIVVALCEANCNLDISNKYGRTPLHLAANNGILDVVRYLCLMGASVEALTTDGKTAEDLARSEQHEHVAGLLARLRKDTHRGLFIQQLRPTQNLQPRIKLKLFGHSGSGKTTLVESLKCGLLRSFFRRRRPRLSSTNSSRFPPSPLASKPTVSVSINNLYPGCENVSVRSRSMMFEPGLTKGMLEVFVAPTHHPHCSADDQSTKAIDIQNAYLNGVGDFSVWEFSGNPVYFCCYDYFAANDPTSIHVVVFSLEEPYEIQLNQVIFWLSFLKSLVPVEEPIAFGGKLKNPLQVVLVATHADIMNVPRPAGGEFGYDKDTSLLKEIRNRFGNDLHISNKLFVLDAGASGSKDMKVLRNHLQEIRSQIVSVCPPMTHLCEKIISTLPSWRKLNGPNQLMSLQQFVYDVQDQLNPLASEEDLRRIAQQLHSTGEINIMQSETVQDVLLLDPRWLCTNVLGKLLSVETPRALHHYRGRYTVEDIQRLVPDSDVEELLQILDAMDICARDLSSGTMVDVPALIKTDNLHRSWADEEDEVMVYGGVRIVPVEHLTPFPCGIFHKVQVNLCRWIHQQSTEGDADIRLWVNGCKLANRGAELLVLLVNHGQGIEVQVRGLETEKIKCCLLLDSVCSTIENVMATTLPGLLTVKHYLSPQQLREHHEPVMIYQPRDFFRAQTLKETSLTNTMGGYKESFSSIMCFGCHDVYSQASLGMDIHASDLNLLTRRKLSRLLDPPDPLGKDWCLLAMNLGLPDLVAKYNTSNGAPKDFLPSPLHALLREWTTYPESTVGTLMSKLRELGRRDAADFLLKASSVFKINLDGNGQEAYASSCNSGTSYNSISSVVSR
Sequence of VEGFR2 (P35968 20-1356): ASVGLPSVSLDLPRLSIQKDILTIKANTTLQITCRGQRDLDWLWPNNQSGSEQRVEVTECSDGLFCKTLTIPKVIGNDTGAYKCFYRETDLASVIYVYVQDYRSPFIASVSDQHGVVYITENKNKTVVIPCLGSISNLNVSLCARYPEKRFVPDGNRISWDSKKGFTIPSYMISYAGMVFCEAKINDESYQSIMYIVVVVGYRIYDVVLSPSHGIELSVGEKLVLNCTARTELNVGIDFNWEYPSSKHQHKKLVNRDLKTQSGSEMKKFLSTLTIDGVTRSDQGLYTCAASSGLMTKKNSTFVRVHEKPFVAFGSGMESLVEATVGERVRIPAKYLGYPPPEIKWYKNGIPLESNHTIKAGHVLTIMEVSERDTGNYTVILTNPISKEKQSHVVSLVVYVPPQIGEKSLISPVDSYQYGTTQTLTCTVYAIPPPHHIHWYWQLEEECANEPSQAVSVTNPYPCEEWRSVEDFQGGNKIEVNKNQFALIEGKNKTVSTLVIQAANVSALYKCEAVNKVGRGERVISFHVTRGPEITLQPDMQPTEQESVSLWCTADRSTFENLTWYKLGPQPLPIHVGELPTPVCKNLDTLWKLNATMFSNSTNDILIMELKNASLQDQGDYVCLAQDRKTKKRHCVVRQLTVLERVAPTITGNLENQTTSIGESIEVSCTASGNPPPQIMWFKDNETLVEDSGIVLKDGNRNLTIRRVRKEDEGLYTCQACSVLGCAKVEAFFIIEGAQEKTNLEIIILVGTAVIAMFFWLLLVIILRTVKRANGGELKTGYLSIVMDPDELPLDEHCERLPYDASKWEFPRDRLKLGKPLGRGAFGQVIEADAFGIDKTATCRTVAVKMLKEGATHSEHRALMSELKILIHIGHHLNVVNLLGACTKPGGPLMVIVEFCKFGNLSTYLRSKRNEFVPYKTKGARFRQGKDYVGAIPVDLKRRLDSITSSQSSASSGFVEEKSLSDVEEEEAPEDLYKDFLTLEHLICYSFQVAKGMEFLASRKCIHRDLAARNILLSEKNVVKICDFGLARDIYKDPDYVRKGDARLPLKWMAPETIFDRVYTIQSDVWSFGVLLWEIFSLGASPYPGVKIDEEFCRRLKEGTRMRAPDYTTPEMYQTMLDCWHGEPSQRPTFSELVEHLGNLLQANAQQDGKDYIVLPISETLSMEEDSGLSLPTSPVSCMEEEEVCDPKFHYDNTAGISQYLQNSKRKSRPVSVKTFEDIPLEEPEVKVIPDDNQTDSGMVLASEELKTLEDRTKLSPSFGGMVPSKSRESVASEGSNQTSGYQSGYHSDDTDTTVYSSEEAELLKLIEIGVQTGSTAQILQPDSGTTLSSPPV
T5 sequence (P36507 whole entry): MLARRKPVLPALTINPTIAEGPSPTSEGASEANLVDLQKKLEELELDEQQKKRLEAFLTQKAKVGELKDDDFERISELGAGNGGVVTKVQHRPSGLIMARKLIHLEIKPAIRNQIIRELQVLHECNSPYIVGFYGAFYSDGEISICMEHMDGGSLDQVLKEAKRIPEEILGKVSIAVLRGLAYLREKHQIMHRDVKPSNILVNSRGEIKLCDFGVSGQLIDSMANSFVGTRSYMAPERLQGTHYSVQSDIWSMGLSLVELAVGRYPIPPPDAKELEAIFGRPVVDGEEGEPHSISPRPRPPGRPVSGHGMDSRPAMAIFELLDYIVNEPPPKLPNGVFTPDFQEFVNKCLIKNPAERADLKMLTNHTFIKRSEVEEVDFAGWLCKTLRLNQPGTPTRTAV
T1 sequence (P48730 whole entry): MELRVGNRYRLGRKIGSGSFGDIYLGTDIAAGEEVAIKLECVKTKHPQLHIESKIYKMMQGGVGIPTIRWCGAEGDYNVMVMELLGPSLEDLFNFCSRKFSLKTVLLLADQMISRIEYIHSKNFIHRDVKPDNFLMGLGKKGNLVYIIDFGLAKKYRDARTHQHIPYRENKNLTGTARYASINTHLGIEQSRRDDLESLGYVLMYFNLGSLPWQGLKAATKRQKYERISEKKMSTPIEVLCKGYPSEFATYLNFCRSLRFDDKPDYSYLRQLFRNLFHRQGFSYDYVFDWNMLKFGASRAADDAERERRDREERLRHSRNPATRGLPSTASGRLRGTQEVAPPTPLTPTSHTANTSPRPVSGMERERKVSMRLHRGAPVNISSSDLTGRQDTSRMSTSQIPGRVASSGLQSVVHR
T3 sequence (Q9P289 whole entry): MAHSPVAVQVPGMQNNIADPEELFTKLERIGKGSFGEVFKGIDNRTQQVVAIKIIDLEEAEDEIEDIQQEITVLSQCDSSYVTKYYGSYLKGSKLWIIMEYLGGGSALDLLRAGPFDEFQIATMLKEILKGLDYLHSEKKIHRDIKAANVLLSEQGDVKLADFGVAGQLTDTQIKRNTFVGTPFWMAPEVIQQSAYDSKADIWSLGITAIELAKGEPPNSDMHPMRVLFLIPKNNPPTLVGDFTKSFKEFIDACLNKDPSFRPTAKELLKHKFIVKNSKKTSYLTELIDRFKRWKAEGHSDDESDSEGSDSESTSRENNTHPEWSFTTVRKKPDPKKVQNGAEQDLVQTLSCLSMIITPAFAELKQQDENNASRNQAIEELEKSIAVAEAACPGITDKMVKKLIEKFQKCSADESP

Row | Compound | IC50 [1, 11] | IC50 [2] | Selectivity Index (SI) MLR/B-cell [2] | IC50 at 48 h [3] | remaining activity at 1 µM [4, 12] | remaining activity at 1 µM [4, 13] | remaining activity at 1 µM [4, 14] | remaining activity at 10 µM [4, 15] | remaining activity at 10 µM [4, 16] | remaining activity at 10 µM [4, 17] | IC50 at 48 h [5] | remaining activity at 1 µM [6, 20] | remaining activity at 1 µM [6, 21] | remaining activity at 1 µM [6, 22] | remaining activity at 10 µM [6, 23] | remaining activity at 10 µM [6, 24] | remaining activity at 10 µM [6, 25] | remaining activity at 1 µM [8, 12] | remaining activity at 1 µM [8, 13] | remaining activity at 1 µM [8, 14] | other results
1 | CCN(CC)Cc1cc(Nc2ccnc3cc(Cl)ccc23)ccc1O [Amodiaquine, reference compound] | 0.66 µM | 9.78 µM | 14.73 | 28.1 µM | 107% | 106% | 108% | 69.1% | 70.5% | 67.6% | 26.2 µM |  |  |  |  |  |  |  |  |  | remaining activity at 1 µM [4, 18]: 107%; remaining activity at 10 µM [4, 19]: 69.1%
2 | Cc1nc(Nc2ncc(C(=O)Nc3c(C)cccc3Cl)s2)cc(N2CCN(CCO)CC2)n1 [Dasatinib, reference compound] | 0.046 µM | 0.0032 µM |  | 0.0324 µM | 98.7% | 95.4% | 102% | 92.7% | 93.2% | 92.2% | 7.3 µM | 81.6% | 81.9% | 81.2% | 19% | 20% | 18% | 92% | 91.8% | 92.1% | remaining activity at 1 µM [7, 26]: 40.2%; remaining activity at 1 µM [7, 27]: 46.5%; remaining activity at 1 µM [7, 28]: 33.9%; remaining activity at 10 µM [7, 26]: 12%; remaining activity at 10 µM [7, 27]: 9.39%; remaining activity at 10 µM [7, 28]: 14.6%; remaining activity at 10 µM [8, 15]: 51.4%; remaining activity at 10 µM [8, 16]: 49.9%; remaining activity at 10 µM [8, 17]: 52.8%; remaining activity at 1 µM [9, 26]: 45.1%; remaining activity at 1 µM [9, 27]: 44.8%; remaining activity at 1 µM [9, 28]: 45.5%; remaining activity at 10 µM [9, 26]: 7.91%; remaining activity at 10 µM [9, 27]: 8.25%; remaining activity at 10 µM [9, 28]: 7.56%
3 | Oc1c(Cl)cc(Cl)c(Cl)c1Cc1c(O)c(Cl)cc(Cl)c1Cl [Hexachlorophene, reference compound] | 5.34 µM | 1.42 µM |  | 4.2 µM |  |  |  |  |  |  | 5.88 µM |  |  |  |  |  |  |  |  |  | remaining activity at 1 µM [6, 29]: 84.9%; remaining activity at 10 µM [6, 29]: 0.02%; remaining activity at 1 µM [6, 30]: 85.4%; remaining activity at 10 µM [6, 30]: -0.21%; remaining activity at 1 µM [6, 31]: 84.5%; remaining activity at 10 µM [6, 31]: 0.25%; remaining activity at 1 µM ([6]; read-out: % Enzyme activity at 1μM): 84.9%; remaining activity at 10 µM ([6]; read-out: % Enzyme activity at 10μM): 0.02%
4 | C=CC(=O)N1CCC[C@@H](n2nc(-c3ccc(Oc4ccccc4)cc3)c3c(N)ncnc32)C1 [Ibrutinib, reference compound] | 0.0002 µM | 1 µM |  | 0.7 µM |  |  |  |  |  |  | 14.7 µM |  |  |  |  |  |  | 95.6% | 97.4% | 93.8% | IC50 ([1]; mean of 4 independent measures, read-out: B-cell efficacy, B cell IC 50 (µM) Mean): 0.000181 µM; remaining activity at 1 µM [10, 12]: 19.5%; remaining activity at 1 µM [10, 13]: 19.6%; remaining activity at 1 µM [10, 14]: 19.5%; remaining activity at 10 µM [10, 27]: 1.46%; remaining activity at 10 µM [10, 28]: 1.53%; inhibition of the kinase activity (strong/weak) ([10]; at 10 and 1 μM): strong (We considered a 50% inhibition of the kinase activity as strong); remaining activity at 1 µM [10, 18]: 19.5%; remaining activity at 10 µM [8, 15]: 23.7%; remaining activity at 10 µM [8, 16]: 24%; remaining activity at 10 µM [8, 17]: 23.5%; remaining activity at 1 µM [8, 18]: 95.6%; remaining activity at 10 µM [8, 19]: 23.7%
5 | Nc1ccc2cc3ccc(N)cc3nc2c1 [Proflavine, reference compound] | 0.59 µM | 4.39 µM | 7.5 | 3.01 µM |  |  |  |  |  |  | 5 µM | 104% | 104% | 104% | 51.6% | 49% | 54.1% |  |  |  | remaining activity at 1 µM [6, 32]: 104%; remaining activity at 10 µM [6, 33]: 51.6%
6 | N[C@@H](Cc1cc(I)c(Oc2cc(I)c(O)c(I)c2)c(I)c1)C(=O)O [Thyroxine, reference compound] | 34.1 µM | > 50 µM |  | > 50 µM | 106% | 106% | 106% | 97.2% | 99.7% | 94.7% | > 50 µM | 90.2% | 91.2% | 89.1% | 48.1% | 47.1% | 49.1% |  |  |  | remaining activity at 1 µM [6, 32]: 90.2%; remaining activity at 10 µM [6, 33]: 48.1%; remaining activity at 1 µM [10, 12]: 104%; remaining activity at 1 µM [10, 13]: 106%; remaining activity at 1 µM [10, 14]: 103%; remaining activity at 10 µM [10, 26]: 86.6%; remaining activity at 10 µM [10, 27]: 89.7%; remaining activity at 10 µM [10, 28]: 83.5%
